Measured values: US20040235884A1, “Preventives/remedies for cholinergic neuropathy” (priority 2001, published 2004)

Columns and labels:
[1] = test system: high-affinity choline uptake of hippocampal synaptosome (membrane sample); assay: Effect on high-affinity choline uptake, [3H]choline, hippocampal synaptosome (membrane sample, P2 fraction) of AF64A-treated rats, in vitro incubation; type: biochemical, male Wistar rats; conditions: membrane samples with choline uptake reduced by AF64A treatment; incubation 37° C. 30 min; FIG. 1
Description: The action of the compound of the formula (I), particularly 4-acylamino-5,6,7,8-tetrahydrofuro[2,3-b]quinoline derivative, on the high-affinity choline uptake was examined using [^3H] choline and hippocampal synaptosome (membrane sample). AF64A (3 μmol), which is a neurotoxin specific to the cholinergic nerve, was administered to male Wistar rats into the cerebral ventricles bilaterally. The rats were subjected to an experiment after a recovery period of about 10 days. Hippocampal membrane samples (P2 fraction) were prepared by a conventional method from these animals and the animals that underwent a sham operation. These membrane samples were incubated in Ringer's solution with Compound A at each concentration or a solvent (vehicle) at 37° C. for 30 min. [^3H] Choline was added to the reaction mixture, and the mixture was incubated for 10 min. After the completion of the incubation, the membrane samples were filtrated on a glass fiber filter using a cell harvester and washed three times with a buffer. After thorough drying, a scintillator was added and the radioactivity of the membrane samples was measured on a liquid scintillation counter. Non-specific uptake was done under ice-cooling.

[2] = test system: high-affinity choline transporter; assay: [3H]hemicholinium-3 binding to hippocampal membrane samples after pre-incubation with drug; Scatchard-plot; parameters: species or system rats
Description: The action of the compound of the formula (I), particularly 4-acylamino-5,6,7,8-tetrahydrofuro[2,3-b]quinoline derivative, relative to the density of the high-affinity choline transporter on the nerve terminal was examined using [^3H]hemicholinium-3, which is a specific labeled ligand of a high-affinity choline transporter (SYNAPSE No. 1, pp. 293-303, 1987). The aforementioned AF64A-treated rats were used in this test, too. Hippocampal membrane samples (P2 fraction) were prepared according to a conventional method from the AF64A-treated animals and the sham operation animals. These membrane samples were incubated in Ringer's solution with Compound A at each concentration or a solvent (vehicle) at 37° C. for 30 min. After the completion of the incubation, the drug was removed from the reaction mixture by centrifugation at 4° C. and the membrane samples were washed. The drug-treated membrane samples thus obtained were suspended in a solution containing [^3H] hemicholinium-3, and incubated overnight at 4° C. […] After thorough drying, a scintillator was added and the radioactivity of the membrane samples was measured on a liquid scintillation counter. […] For the analysis of binding mode, Scatchard-plot was used and the maximum binding Bmax and dissociation constant Kd were calculated.

[3] = test system: high-affinity choline uptake of hippocampal membrane samples; assay: Sustention of action on high-affinity choline uptake: hippocampal membrane samples prepared after single or consecutive administration to AF64A-treated rats; type: in vivo; conditions: for HACU promotion: FIG. 6
Source text: (§1) Because the compound of the formula (I), particularly 4-acylamino-5,6,7,8-tetrahydrofuro[2,3-b]quinoline derivative, has the above-mentioned mechanism, the promoting action on the high-affinity choline uptake is considered to be dependent on the density of high-affinity choline transporters on the nerve terminal, and therefore, to show a shift independent of the elimination rate of a drug. To clarify this point, the sustained promoting action on the high-affinity choline uptake was examined by monitoring the changes in efficacy when the aforementioned AF64A-treated rats were subjected to single and consecutive administration(s) of a drug. In the test, Compound A at each concentration or a solvent (vehicle) was administered singly or consecutively to AF64A-treated animals and the animals that underwent a sham operation. After a given time, the animals were slaughtered and hippocampal membrane samples (P2 fraction) were prepared by a conventional method. These membrane samples were incubated in Ringer's solution supplemented with [^3H) choline at 37° C. for 10 min. After the completion of the incubation, the membrane samples were filtrated on a glass fiber filter using a cell harvester and washed three times with a buffer. After thorough drying, a scintillator was added and the radioactivity of the membrane samples was measured on a liquid scintillation counter. The non-specific uptake was that in the presence of hemicholinium-3 (10 μM) in a sodium ion free Ringer's solution. To establish the close relationship between the efficacy observed here and an improving action on the dementia symptoms, the improving effect on the water maze-learning disorder observed in the AF64A-treated rats was also studied at a given time after drug administration for 8 consecutive days.

AF64A-treated rats = assay: Water maze-learning disorder test in AF64A-treated rats; type: in vivo; conditions: FIG. 7
Source text: as §1, with “The non-specific uptake was that in the presence of hemicholinium-3 (10 μM) in a sodium ion free Ringer's solution. To establish the close relationship between the efficacy observed here and an improving action on the dementia symptoms, the improving effect on the water maze-learning disorder observed in the AF64A-treated rats was also studied at a given time after drug administration for 8 consecutive days.” left out

What does the source list for `Cc1oc2nc3c(c(NC(=O)CN4CCCC4=O)c2c1C)CCCC3` [Compound A, 2-(2-oxopyrrolidin-1-yl)-N-(2,3-dimethyl-5,6,7,8-tetrahydrofuro[2,3-b)quinolin-4-yl)acetamide]?
choline uptake of hippocampal membrane samples [1]: significantly improved; action on maximum binding Bmax of hemicholinium-3 (transporter number on membrane surface) ([2]; Scatchard-plot analysis, FIG. 3): increasing action on the maximum binding Bmax; binding of [3H]hemicholinium-3 on the hippocampal membrane sample ([2]; incubation in advance with drug, 37° C. 30 min, FIG. 2): increased dose-dependently; HACU promotion ([3]; 24 h after administration for 4 consecutive days): significant HACU promotion was not observed; HACU promotion ([3]; 24 h after administration for 16 consecutive days): same level of improving effect as with the administration for 8 consecutive days; HACU promoting action ([3]; administration for 8 consecutive days, 24 h from the final administration, FIG. 5): significant HACU promoting action was observed; HACU promoting action ([3]; administration for 8 consecutive days, 48 h later, FIG. 5): sustained; HACU promoting action ([3]; administration for 8 consecutive days, 72 h, FIG. 5): disappeared; HACU promoting action ([3]; single administration, 1 h after administration, FIG. 4): significant promotion of HACU; HACU promoting action ([3]; single administration, 3 h after administration, FIG. 4): significant promotion of HACU; HACU promoting action ([3]; single administration, 24 h later, FIG. 4): attenuated; improving effect on learning disorder (water maze) (AF64A-treated rats; 24 h after the administration for 8 consecutive days): significant improving effect on learning disorder; improving effect on learning disorder (water maze) (AF64A-treated rats; 48 h after the administration for 8 consecutive days): significant improving effect on learning disorder
